Experimental data published in patent US9103790B2, “Linker for unimolecular FRET biosensor based on principle of fluorescence resonance energy transfer” (KYOTO UNIVERSITY, priority 2010, dated 2015).

Tests used:
[1] = test system: EGF dependent-activation of ERK; assay: Drug sensitivity test: FRET measurement of ERK activity in cell line stably expressing Eevee-ERK (3560 NES); assay type: cell-based, human; settings: HeLa cells stably expressing Eevee-ERK (3560 NES); serial-diluted inhibitors; 25 ng/mL EGF; after 30 min; average of 30 or more cells
Procedure: FIG. 18A illustrates results when HeLa cells stably expressing Eevee-ERK were seeded onto a 96-well plate, were added thereto serial-diluted inhibitors and stimulated with 25 ng/mL EGF. ERK activities were automatically measured for 30 or more cells, averaged, and plotted. FIG. 18A illustrates results of DMSO controls.
A mammalian cell expression plasmid containing the gene of Eevee-ERK (3560 NES) described in Example 3 was inserted into a plasmid having a transposon recognition sequence. This plasmid and a transposon expression vector was co-transfected as previously reported and screened for biosensor-expressing cell lines by blasticidin [Yusa, K., R. Rad, J. Takeda, and A. Bradley. 2009. Generation of transgene-free induced pluripotent mouse stem cells by the piggyBac transposon. Nat. Methods 6 (5)363-369].
Cultured cell lines were seeded onto a 96-well culture plate. Serial-diluted inhibitors were added thereto. The cell lines were stimulated with 25 ng/mL EGF. After 30 min, ERK activities were measured as described in Example 3 (see FIGS. 18A to 18H). The average ERK activities of 30 or more cells were plotted. The following inhibitors were used: EGF receptor inhibitors (AG1478), MEK inhibitors (PD15035, PD184351), BRAF inhibitors (PLX4720), phosphatidylinositol 3-phosphate kinase inhibitors (LY294002), RSK inhibitors (BI-D1870) and JNK inhibitors (JNK inhibitor VIII).

[2] = test system: PKA; assay: Drug sensitivity test with transgenic mouse expressing Eevee-PKA (3536 NES), two-photon FRET imaging of small intestine; assay type: in vivo; settings: intravenous injection; intermuscular nerve cell, intestinal smooth muscle, vascular smooth muscle
Source text: FIG. 19 illustrates results when the transgenic mouse expressing Eevee-PKA (3536 NES) was intravenously injected with theophylline, which is a phosphodiesterase inhibitor, and actosin, which is a cyclic adenosine triphosphate analog, and measured for PKA activities.
The transgenic mouse expressing Eevee-PKA (3536 NES) generated in Example 10 was anesthetized with isoflurane. A small intestine of the mouse was time-lapse imaged by an inverted two-photon microscope IX81/FV1000 (product of Olympus Corporation). Cells were excited at 840 nm with a titanium-sapphire laser system (Mai Tai Deep See HP; product of Spectra-Physics, Inc.). CFP fluorescence and YFP fluorescence were acquired using BA 460-500 fluorescence filter (product of Olympus Corporation) and BA 520-560 fluorescence filter (product of Olympus Corporation), respectively. FRET images were obtained in the same manner as in Example 3.
The transgenic mouse was intravenously injected with theophylline, which is a phosphodiesterase inhibitor, and actosin, which is a cyclic adenosine triphosphate analog, and measured for PKA activities.

O=C(NOCC1CC1)c1ccc(F)c(F)c1Nc1ccc(I)cc1Cl [PD184352]
inhibition of EGF dependent-activation of ERK [1]: effectively inhibited

COc1cc2ncnc(Nc3cccc(Cl)c3)c2cc1OC [AG1478]
inhibition of EGF dependent-activation of ERK [1]: effectively inhibited

CCCC(=O)Nc1ncnc2c1ncn2[C@@H]1O[C@@H]2COP(=O)([O-])O[C@H]2[C@H]1OC(=O)CCC.[Na+] [actosin]
PKA activities (FRET) [2]: Changes in PKA activities

Cn1c(=O)c2[nH]cnc2n(C)c1=O [theophylline]
PKA activities (FRET) [2]: Changes in PKA activities

COc1cc2ncnc(Nc3cccc(Br)c3)c2cc1OC [PD153035]
inhibition of EGF dependent-activation of ERK [1]: effectively inhibited
